Data reported in ChEMBL document CHEMBL3997829, “Discovery of novel substituted octahydropyrrolo[3,4-c]pyrroles as dual orexin receptor antagonists for insomnia treatment” (Bioorg Med Chem Lett, 2017).
In brackets after ≈: the same amount, converted by molar mass.

Tests used:
[1] = target: T1, Orexin/Hypocretin receptor type 1 (Homo sapiens, UniProt O43613); assay: Antagonist activity at human orexin 1 receptor expressed in HEK293 cells assessed as inhibition of orexin-induced calcium mobilization after 60 mins by FLIPR assay; type: functional, cell-based
T1 sequence (O43613 whole entry): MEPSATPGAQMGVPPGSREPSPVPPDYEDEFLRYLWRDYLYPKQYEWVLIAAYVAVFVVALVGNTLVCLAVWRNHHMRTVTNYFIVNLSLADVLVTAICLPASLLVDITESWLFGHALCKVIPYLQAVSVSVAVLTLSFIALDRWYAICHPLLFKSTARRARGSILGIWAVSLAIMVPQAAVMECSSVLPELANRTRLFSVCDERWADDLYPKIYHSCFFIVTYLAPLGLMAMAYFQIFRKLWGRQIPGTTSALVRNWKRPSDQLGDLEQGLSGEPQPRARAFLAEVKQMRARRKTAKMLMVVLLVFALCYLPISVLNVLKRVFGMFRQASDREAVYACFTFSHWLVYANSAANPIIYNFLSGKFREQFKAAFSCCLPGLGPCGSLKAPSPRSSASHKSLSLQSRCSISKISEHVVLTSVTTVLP

[2] = target: T2, Orexin receptor type 2 (Homo sapiens, UniProt O43614); assay: Antagonist activity at human orexin 2 receptor expressed in HEK293 cells assessed as inhibition of orexin-induced calcium mobilization after 60 mins by FLIPR assay; type: functional, cell-based
T2 sequence (O43614 whole entry): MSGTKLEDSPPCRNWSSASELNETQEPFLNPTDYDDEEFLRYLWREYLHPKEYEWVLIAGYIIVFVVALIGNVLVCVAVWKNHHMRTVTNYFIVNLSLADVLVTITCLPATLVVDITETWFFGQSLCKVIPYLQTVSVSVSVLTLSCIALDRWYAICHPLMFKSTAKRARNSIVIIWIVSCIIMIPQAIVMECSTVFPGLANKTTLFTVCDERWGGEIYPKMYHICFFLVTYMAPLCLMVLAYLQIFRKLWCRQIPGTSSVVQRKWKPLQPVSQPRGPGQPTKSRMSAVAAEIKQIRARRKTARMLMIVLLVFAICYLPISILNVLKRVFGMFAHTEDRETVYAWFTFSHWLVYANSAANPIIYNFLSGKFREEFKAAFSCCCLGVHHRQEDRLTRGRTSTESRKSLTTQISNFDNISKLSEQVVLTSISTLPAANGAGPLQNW

[3] = test system: Rattus norvegicus; assay: Sleep promoting activity in Sprague-Dawley rat assessed as decrease in active wake time at 90 mg/kg, po measured over 2 hrs by electroencephalogram method; type: functional
[4] = test system: Rattus norvegicus; assay: Sleep promoting activity in Sprague-Dawley rat assessed as effect on rapid eye movement sleep time at 90 mg/kg, po measured over 2 hrs by electroencephalogram method; type: functional
[5] = test system: Rattus norvegicus; assay: Sleep promoting activity in Sprague-Dawley rat assessed as increase in slow wave sleep time at 90 mg/kg, po measured over 2 hrs by electroencephalogram method; type: functional
[6] = target: Voltage-gated inwardly rectifying potassium channel KCNH2 (Homo sapiens, UniProt Q12809); assay: Inhibition of human ERG
Voltage-gated inwardly rectifying potassium channel KCNH2, sequence (Q12809 whole entry): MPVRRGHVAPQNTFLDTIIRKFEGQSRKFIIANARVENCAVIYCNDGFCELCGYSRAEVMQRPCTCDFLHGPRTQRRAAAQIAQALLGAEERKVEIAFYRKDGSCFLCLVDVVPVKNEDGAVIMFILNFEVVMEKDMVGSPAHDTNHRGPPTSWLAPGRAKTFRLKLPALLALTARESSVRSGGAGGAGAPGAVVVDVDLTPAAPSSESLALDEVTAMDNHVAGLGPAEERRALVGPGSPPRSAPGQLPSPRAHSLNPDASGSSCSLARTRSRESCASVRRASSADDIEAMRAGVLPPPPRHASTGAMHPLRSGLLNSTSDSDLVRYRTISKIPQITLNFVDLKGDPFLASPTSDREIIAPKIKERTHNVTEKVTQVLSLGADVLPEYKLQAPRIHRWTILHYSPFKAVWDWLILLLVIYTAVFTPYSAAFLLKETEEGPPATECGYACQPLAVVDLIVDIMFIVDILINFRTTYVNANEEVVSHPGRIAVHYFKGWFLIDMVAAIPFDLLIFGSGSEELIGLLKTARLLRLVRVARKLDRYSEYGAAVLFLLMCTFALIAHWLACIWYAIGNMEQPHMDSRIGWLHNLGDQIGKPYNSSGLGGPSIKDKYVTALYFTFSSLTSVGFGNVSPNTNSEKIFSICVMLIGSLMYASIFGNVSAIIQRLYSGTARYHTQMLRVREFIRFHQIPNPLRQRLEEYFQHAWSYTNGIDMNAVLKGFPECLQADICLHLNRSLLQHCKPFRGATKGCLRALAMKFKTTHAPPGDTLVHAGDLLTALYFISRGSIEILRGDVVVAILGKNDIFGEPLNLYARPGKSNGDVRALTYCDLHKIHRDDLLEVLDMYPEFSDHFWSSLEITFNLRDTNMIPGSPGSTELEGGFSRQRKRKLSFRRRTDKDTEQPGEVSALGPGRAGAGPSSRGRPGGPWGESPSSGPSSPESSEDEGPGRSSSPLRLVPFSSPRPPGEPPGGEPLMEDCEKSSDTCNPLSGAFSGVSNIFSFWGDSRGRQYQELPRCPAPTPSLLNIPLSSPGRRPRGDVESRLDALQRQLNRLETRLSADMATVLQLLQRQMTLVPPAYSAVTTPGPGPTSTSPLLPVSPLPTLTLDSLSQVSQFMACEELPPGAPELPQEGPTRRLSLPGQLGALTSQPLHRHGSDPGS

[7] = test system: Brain; assay: Drug uptake in Sprague-Dawley rat brain at 10 mg/kg, po at 4 hrs; type: ADME, organism-based; settings: in vivo
[8] = Plasma concentration in Sprague-Dawley rat at 10 mg/kg, po at 4 hrs; type: ADME, organism-based
[9] = test system: Brain; assay: Drug uptake in Sprague-Dawley rat brain at 10 mg/kg, po at 1 hr; type: ADME, organism-based; settings: in vivo
[10] = Plasma concentration in Sprague-Dawley rat at 10 mg/kg, po at 0.3 hrs; type: ADME, organism-based
[11] = test system: Brain; assay: Drug uptake in Sprague-Dawley rat brain at 10 mg/kg, po at 0.3 hrs; type: ADME, organism-based; settings: in vivo
[12] = Thermodynamic solubility of the compound in phosphate buffer at pH 7.4 by HPLC method; type: physicochemical; settings: read-out: Therm_solubility
[13] = Ratio of drug level in brain to plasma in Sprague-Dawley rat at 10 mg/kg, po at 1 hr; type: ADME, organism-based; settings: read-out: BPR
[14] = Ratio of drug level in brain to plasma in Sprague-Dawley rat at 10 mg/kg, po at 0.5 hrs; type: ADME, organism-based; settings: read-out: BPR
[15] = Plasma concentration in Sprague-Dawley rat at 10 mg/kg, po at 1 hr; type: ADME, organism-based
[16] = Clearance in Sprague-Dawley rat at 2 mg/kg, iv; type: ADME, organism-based; settings: in vivo
[17] = Cmax in Sprague-Dawley rat at 15 mg/kg, po; type: ADME, organism-based; parameters: dose 15 mg/kg, route oral; settings: in vivo
[18] = Half life in Sprague-Dawley rat at 2 mg/kg, iv; type: ADME, organism-based; settings: in vivo
[19] = AUC in Sprague-Dawley rat at 15 mg/kg, po; type: ADME, organism-based; settings: in vivo
[20] = Ratio of drug level in brain to plasma in Sprague-Dawley rat at 10 mg/kg, po at 4 hrs; type: ADME, organism-based; settings: read-out: BPR
[21] = Tmax in Sprague-Dawley rat at 15 mg/kg, po; type: ADME, organism-based; settings: in vivo
[22] = Oral bioavailability in Sprague-Dawley rat at 15 mg/kg; type: ADME, organism-based; settings: in vivo

Row | SMILES | IC50 [1] | IC50 [2] | also measured
1 | Cc1ccc(-n2nccn2)c(C(=O)N2C[C@@H]3CN(c4nc5cc(Cl)ccc5s4)C[C@@H]3C2)c1 | 0.327 µM | 1.19 µM | –
2 | O=C(c1ccccc1-n1nccn1)N1C[C@@H]2CN(c3nc4cc(Cl)ccc4o3)C[C@@H]2C1 | 0.489 µM | 0.238 µM | –
3 | Cc1ccc(-n2nccn2)c(C(=O)N2CCN(c3nc4cc(Cl)ccc4o3)CC[C@H]2C)c1 [SUVOREXANT] | – | – | Time [3]: 46.9 min; Time [4]: 13.6 min; Time [5]: 33.5 min
4 | Cc1ccc(-n2nccn2)c(C(=O)N2C[C@@]3(F)CN(c4nc5cc(Cl)ccc5o4)C[C@@]3(F)C2)c1 | 0.759 µM | 0.639 µM | IC50 [6]: > 30 µM
5 | Cc1ccc(-n2nccn2)c(C(=O)N2CC3CN(c4nc5cc(Cl)ccc5o4)CC3(C)C2)c1 (stereo not drawn) | 0.736 µM | 1.09 µM | –
6 | Cc1ccc(-n2nccn2)c(C(=O)N2CCC3CN(c4nc5cc(Cl)ccc5o4)CC32)c1 (stereo not drawn) | 2.97 µM | 0.354 µM | –
7 | Cc1ccc(-n2nccn2)c(C(=O)N2C[C@@H]3CN(c4nc5cc(F)ccc5o4)C[C@@H]3C2)c1 | 0.293 µM | 0.131 µM | Drug uptake ([7]; BLD = below limit of detection): Bld; concentration at 4 h [8]: 0.077 µM; Drug uptake [9]: 42 nmol/kg; concentration at 0.3 h [10]: 1.26 µM; Drug uptake [11]: 74 nmol/kg; solubility thermodynamic [12]: < 2 µM; Kp at 1 h [13]: 0.05; Kp at 0.5 h [14]: 0.06; concentration at 1 h [15]: 0.859 µM
8 | COc1ccc2oc(N3C[C@H]4CN(C(=O)c5cc(C)ccc5-n5nccn5)C[C@H]4C3)nc2c1 | 0.401 µM | 0.311 µM | –
9 | Cc1ccc(-n2nccn2)c(C(=O)N2C[C@@H]3CN(c4nc5cc(C)ccc5o4)C[C@@H]3C2)c1 | 0.113 µM | 0.211 µM | –
10 | Cc1ccc(-n2nccn2)c(C(=O)N2C[C@@H]3CN(c4ncnc5ccccc45)C[C@@H]3C2)c1 | > 10 µM | 1.68 µM | –
11 | Cc1ccc(-n2nccn2)c(C(=O)N2C[C@@H]3CN(c4nc5cc(C(F)(F)F)ccc5o4)C[C@@H]3C2)c1 | 1.78 µM | 0.508 µM | –
12 | Cc1ccc(-n2nccn2)c(C(=O)N2C[C@@]3(C)CN(c4nc5cc(Cl)ccc5o4)C[C@@]3(C)C2)c1 | 1.89 µM | 5.99 µM | –
13 | Cc1ccc(-n2nccn2)c(C(=O)N2CC3CCN(c4nc5cc(Cl)ccc5o4)C3C2)c1 (stereo not drawn) | > 10 µM | > 10 µM | –
14 | Cc1ccc(-n2nccn2)c(C(=O)N2C[C@@H]3CN(c4nc(-c5cccc(Cl)c5)co4)C[C@@H]3C2)c1 | 1.01 µM | 2.79 µM | –
15 | O=C(c1cc(F)ccc1-n1nccn1)N1C[C@@H]2CN(c3nc4cc(Cl)ccc4o3)C[C@@H]2C1 | 1.96 µM | 0.791 µM | –
16 | Cc1ccc(-n2nccn2)c(C(=O)N2C[C@@H]3CN(c4nc5ccccc5n4C)C[C@@H]3C2)c1 | 1.64 µM | 0.775 µM | –
17 | Cc1ccc(-n2nccn2)c(C(=O)N2C[C@@H]3CN(c4nc(C)c(C)c(C)n4)C[C@@H]3C2)c1 | > 10 µM | 4.85 µM | –
18 | Cc1ccc(-n2nccn2)c(C(=O)N2CC3CCCN(c4nc5cc(Cl)ccc5o4)C3C2)c1 (stereo not drawn) | > 10 µM | > 10 µM | –
19 | Cc1ccc(-n2nccn2)c(C(=O)N2CCCC3CN(c4nc5cc(Cl)ccc5o4)CC32)c1 (stereo not drawn) | > 10 µM | > 10 µM | –
20 | O=C(c1cc(Cl)ccc1-n1nccn1)N1C[C@@H]2CN(c3nc4cc(Cl)ccc4o3)C[C@@H]2C1 | > 10 µM | 1.27 µM | –
21 | Cc1ccc(-n2nccn2)c(C(=O)N2C[C@@H]3CN(c4ncc5cc(F)ccc5n4)C[C@@H]3C2)c1 | 0.216 µM | 0.108 µM | Drug uptake ([7]; BLD = below limit of detection): Bld; concentration at 4 h [8]: 0.024 µM; Drug uptake [9]: 43 nmol/kg; concentration at 0.3 h [10]: 0.567 µM; Drug uptake [11]: 80 nmol/kg; solubility thermodynamic [12]: 2.6 µM (≈ 1.15 µg/mL); Kp at 1 h [13]: 0.13; Kp at 0.5 h [14]: 0.14; concentration at 1 h [15]: 0.328 µM
22 | Cc1ccc(-n2nccn2)c(C(=O)N2C[C@@H]3CN(c4nc5cc(Cl)ccc5o4)C[C@@H]3C2)c1 | 0.226 µM | 0.206 µM | Drug uptake [7]: 111 nmol/kg; clearance [16]: 1.92 L/h/kg; concentration at 4 h [8]: 0.409 µM; Cmax [17]: 2.1 µM; Drug uptake [9]: 376 nmol/kg; half-life [18]: 43.8 min; concentration at 0.3 h [10]: 3.37 µM; Drug uptake [11]: 643 nmol/kg; solubility thermodynamic [12]: < 2 µM; AUC [19]: 5.4 µM·h; Kp at 1 h [13]: 0.15; Kp at 4 h [20]: 0.27; Kp at 0.5 h [14]: 0.19; concentration at 1 h [15]: 2.5 µM; Tmax [21]: 25.2 min; bioavailability [22]: 27%
23 | Cc1ccc(-n2nccn2)c(C(=O)N2C[C@@H]3CN(c4nc5cc(OC(F)(F)F)ccc5o4)C[C@@H]3C2)c1 | 3.92 µM | 4.71 µM | –
24 | COc1ccc(-n2nccn2)c(C(=O)N2C[C@@H]3CN(c4nc5cc(Cl)ccc5o4)C[C@@H]3C2)c1 | 0.517 µM | 0.387 µM | –
25 | O=C(c1cc(OC(F)(F)F)ccc1-n1nccn1)N1C[C@@H]2CN(c3nc4cc(Cl)ccc4o3)C[C@@H]2C1 | 0.502 µM | 1.52 µM | –
26 | Cc1ccc(-n2nccn2)c(C(=O)N2C[C@H]3CN(Cc4nc5cc(Cl)ccc5o4)C[C@H]3C2)c1 | 3.24 µM | 1.82 µM | –
27 | Cc1ccc(-n2nccn2)c(C(=O)N2C[C@@]3(F)CN(c4nc5ccccc5o4)C[C@@]3(F)C2)c1 | 0.908 µM | 0.575 µM | IC50 [6]: > 30 µM
28 | O=C(c1cc(C(F)(F)F)ccc1-n1nccn1)N1C[C@@H]2CN(c3nc4cc(Cl)ccc4o3)C[C@@H]2C1 | 5.02 µM | 1.04 µM | –
